Publication PMC8911025, “Design, Synthesis, and Biological Evaluation of New Azulene-Containing Chalcones” (Materials, 2022)
≈ marks a conversion by molar mass, not a printed value.

How the values were obtained:
Assay type in all cases: cell-based
[1] = tested on: Candida parapsilosis ATCC 22019; test: MIC (antifungal), binary serial dilution in 96-well plates; conditions: Lodderomyces parapsilosis, ATCC22019; Candida parapsilosis ATCC 22019, 24 h at 37 °C
Description: (§1) The antimicrobial activity of all compounds was assessed on Gram-positive bacteria (Staphylococcus aureus ATCC 25923), Gram-negative bacteria (Escherichia coli ATCC 25922, Pseudomonas aeruginosa ATCC 27853), and fungi (Candida parapsilosis ATCC 22019) using quantitative binary serial dilution method in 96-well plates. The negative control was represented by wells with culture medium, while positive control was the microbial strain in broth. Briefly, binary serial dilutions of the compounds performed in 100 μL of broth were seeded with microbial inoculum of 10^6 colony forming units (CFU)/mL and incubated for 24 h at 37 °C. […] Due to the fact that the obtained compounds were colored, after the incubation of the 96-well plates, from each well, 10 µL were seeded on agar plates (Plate Count Agar) to determine the inhibitory concentration. The same value of the inhibitory concentration was obtained in repeated experiments.
(§2) The antibacterial effect of the azulene moiety introduced in the chalcone structure was investigated against Gram-positive (Staphylococcus aureus ATCC 25923) and Gram-negative (Escherichia coli ATCC 25922, Pseudomonas aeruginosa ATCC 27853) bacteria, while the antifungal effect was tested against Candida parapsilosis ATCC 22019. To our knowledge, the antibacterial activity of azulene-containing chalcone compounds has not been reported previously; moreover, this is the first investigation of the biological properties of azulene-containing chalcones in general. The results expressed in terms of minimum inhibitory concentration (MIC) were determined by in vitro screening of the antimicrobial properties using the broth microdilution method and are summarized in Table 5.
We further tested the azulene-containing chalcone compounds for antifungal activity against Candida parapsilosis ATCC 22019.

[2] = tested on: Escherichia coli ATCC 25922; test: MIC, binary serial dilution in 96-well plates; conditions: ATCC25922; Escherichia coli ATCC 25922, 24 h at 37 °C
Description: as §1, §2

[3] = tested on: Pseudomonas aeruginosa ATCC 27853; test: MIC, binary serial dilution in 96-well plates; conditions: ATCC27853; Pseudomonas aeruginosa ATCC 27853, 24 h at 37 °C
Description: as §1, §2

[4] = tested on: Staphylococcus aureus ATCC 25923; test: MIC, binary serial dilution in 96-well plates
Description: as §1, §2

[5] = Cell viability assay (CellTiter Glo); conditions: human; HEp-2 cells, 48 h, CellTiter Glo; read-out: IC50 (50% cytotoxic concentration)
Description: To assess the toxicity of the azulene-containing chalcones, the adherent cell line HEp-2 (American Cell Type Collection [ATCC] CCL-23^TM) was used.
In order to estimate the cytotoxicity of the compounds, HEp-2 cells (American Cell Type Collection (ATCC) CCL-23) were exposed to the azulene-containing chalcones at concentrations of 200, 100, 50, and 25 μg/mL and evaluated using CellTiter Glo kit (Promega, Madison, WI, USA) assay. The results presented in Figure 3 are expressed as viability percentages versus control.

[6] = tested on: Pseudomonas aeruginosa; test: Antibiofilm activity (crystal violet, A490); conditions: biofilm, read-out: MBEC
Description: (§3) The effect of the chalcones on the biofilm formation was evaluated after the determination of the MICs. Briefly, the plates were emptied, washed to remove the nonadherent cells, fixed with methanol, and stained with crystal violet. The antibiofilm activity was determined after adding 33% acetic acid solution by measuring the absorbance at 490 nm, and the results are listed in Table 6.
(§4) The azulene-chalcone derivatives were tested for their ability to affect biofilm formation since 80% of the world’s microbial biomass is found in the biofilm state. The most efficient compound was again chalcone 6 with MBEC of 0.156–0.625 mg/mL (Table 6).

[7] = tested on: Escherichia coli; test: Antibiofilm activity (crystal violet, A490); conditions: biofilm, read-out: MBEC
Description: as §3, §4

[8] = tested on: Candida parapsilosis; test: Antibiofilm activity (crystal violet, A490); conditions: Lodderomyces parapsilosis, biofilm, read-out: MBEC
Description: as §3, §4

[9] = tested on: Staphylococcus aureus; test: Antibiofilm activity (crystal violet, A490); conditions: biofilm, read-out: MBEC
Description: as §3, §4

[10] = tested on: NOX4; test: Gene expression quantification (qPCR); conditions: HEp-2, 100 µg/mL, 24 h
Description: (§5) The mechanism of azulene-containing chalcone toxicity was assessed by gene expression evaluation. HEp-2 cells were seeded in 6-well plates at a concentration of 3 × 10^5 cells/wells in DMEM:F12 supplemented with 10% FBS. The cells were treated with azulene-containing chalcone at a concentration of 100 µg/mL. After 24 h, the cells were harvested and centrifuged, and the pellet was subjected to total RNA extraction using Trizol reagent (Sigma, St. Louis, MO, USA). The cDNA was produced using 2 µg total RNA and High Capacity Reverse Transcription Kit (Thermo Fisher Scientific, Chelmsford, MA, USA). Fifty nanograms of cDNA was subjected to PCR reaction using Maxima SYBR Green/ROX qPCR Master Mix (Thermo Fisher Scientific, Chelmsford, MA, USA) and Origene primer pairs: caspase 3 (CAT#: HP207674) caspase 7 (CAT#: HP233752), caspase 8 (CAT#: HP234494), caspase 9 (CAT#: HP205155), caspase 10 (CAT#: HP228052). For NOX-4 and NOS2, the following primers were used: NOX 4 forward 5′-[…]-3 and reverse 5′-[…]-3′ and NOS2 forward 5′-[…]-3′ and reverse 5′-[…]-3′. Amplification was completed using StepOne Real-Time PCR System (Thermo Fisher Scientific, Chelmsford, MA, USA). The relative changes in the levels of mRNA expression were quantified by using the 2^−ΔΔCT method.
One of our approaches consisted of the analysis of NOS2 and NOX4 gene expression (Figure 6). […]

[11] = tested on: caspase 8; test: Gene expression quantification (qPCR); conditions: HEp-2, 100 µg/mL, 24 h
Description: as §5
Production of procaspase 8 mRNA was inhibited by 7, 9, and 10, with an important role in extrinsic apoptosis induction remaining for caspase 10. Cellular stress induces intrinsic apoptosis by caspase 9 activation that stimulates the caspase cascade, culminating in activation of executioner caspases 3 and 7 [42]. The mRNA expression of caspase 9 was activated following the treatment with 100 µg/mL of compounds 1–8 but inhibited by 9 and 10.

SMILES: O=C(/C=C/c1cc(Cl)c2cccccc1-2)c1ccc2cccccc1-2 [Compound 7, (E)-1-(Azulen-1-yl)-3-(3-chloroazulen-1-yl)prop-2-en-1-one]
- MIC [1]: 312 µg/mL (≈ 910 µM)
- MIC [2]: 625 µg/mL (≈ 1820 µM)
- MIC [3]: 625 µg/mL (≈ 1820 µM)
- MIC ([4]; ATCC25923, Staphylococcus aureus ATCC 25923, 24 h at 37 °C): 625 µg/mL (≈ 1820 µM)
- Aexp ([4]; Aexp = 0.1 + log (k/MIC), k = 1.250, compounds synthesized herein): 0.401
- IC50 at 48 h [5]: 42.9 µg/mL (≈ 125 µM)
- minimal effective concentration [6]: 625 µg/mL
- minimal effective concentration [7]: 1250 µg/mL
- minimal effective concentration [8]: 312 µg/mL
- minimal effective concentration [9]: 625 µg/mL
- NOX4 activation (expression) [10]: minimal
- procaspase 8 mRNA production [11]: inhibited
